The text below walks through data of PMC8551148, “Identification and characterization of deschloro-chlorothricin obtained from a large natural product library targeting aurora A kinase in multiple myeloma” (Investigational New Drugs, 2020).

Usually Kd stands for the equilibrium constant for the complex coming apart. Lower therefore signals a tighter complex.

The assay has as its target T1, Aurora A kinase (AURKA) (Homo sapiens, UniProt O14965).
T1 sequence (O14965 1-403): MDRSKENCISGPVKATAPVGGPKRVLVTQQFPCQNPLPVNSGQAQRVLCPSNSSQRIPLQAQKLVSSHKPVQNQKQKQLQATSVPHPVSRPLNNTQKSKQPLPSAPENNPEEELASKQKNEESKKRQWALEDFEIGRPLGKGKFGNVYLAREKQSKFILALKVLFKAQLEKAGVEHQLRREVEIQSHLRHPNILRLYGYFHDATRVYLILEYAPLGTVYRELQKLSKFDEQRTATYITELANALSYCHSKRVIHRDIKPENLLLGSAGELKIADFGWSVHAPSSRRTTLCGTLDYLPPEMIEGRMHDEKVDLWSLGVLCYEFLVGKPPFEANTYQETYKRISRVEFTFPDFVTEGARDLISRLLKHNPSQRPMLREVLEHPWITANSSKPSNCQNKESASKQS
As to the kind of experiment: microscale thermophoresis with RED-NHS labelled purified AURKA ([…]). The class given is binding. On the technique in general: Microscale thermophoresis detects binding through changes in fluorescence in a small temperature gradient.

In turn, `COc1cccc(C)c1C(=O)O[C@@H]1C[C@H](O[C@H]2[C@H](O)C[C@H](O[C@@H]3CCC[C@H]4[C@H]3C=C[C@@H]3CCCC/C=C\[C@H]5C=C(C(=O)O)[C@@H](C)C[C@@]56OC(=O)C(=C6O)OC(=O)[C@@]34C)O[C@@H]2C)O[C@H](C)[C@H]1O` [Compound 5, deschloro-chlorothricin] displayed a Kd of 8.17 µM.
